Test results from patent US11059718B2, “Methods and compositions using peptides and proteins with C-terminal elements” (Sanford Burnham Prebys Medical Discovery Institute, priority 2009, dated 2021).

Experiments:
[1] = tested on: tumor; settings: VEGF locally superfused on tumors; cited from earlier work
[2] = tested on: orthotopic 22Rv-1 human prostate cancer xenografts; settings: mouse, in vivo
Method: The circulation time was 2 hrs. for the free peptides, 15 min. for the peptide-displaying phage, and 3 hrs. for the peptide-coupled micelles. […] Representative fields from multiple sections of each of these three tumors are shown. Scale bars=50 μm. […] The samples were subjected to image analysis with Scanscope CM-1 scanner for quantification of the FAM-positive areas. Statistical analysis was performed with Student's t-test. n=3; error bars, s.e.m.; triple asterisk, p<0.001.

[3] = tested on: heart (cardiomyocyte apoptosis); assay: TUNEL staining of heart sections after DOX-liposome treatment; type: in vivo, mice; settings: 1 mg DOX/kg + iRGD daily, 17 days
Method: (FIGS. 14A and 14B) Nude mice bearing orthotopic 22Rv1 human prostate tumors were intravenously injected with DOX-liposomes (3 mg DOX/kg) followed 5 min later by 100 nmol iRGD or PBS. Tumors and tissues were collected 3 hours later. In (FIG. 14A), the tumors were sectioned and stained with an anti-CD31 antibody. The doxorubicin is represented by the light specs that look like four halos in the left panel. Scale bars=200 μm, n=3. In (FIG. 14B), DOX in the tissues was quantified. […] The tumors were harvested and weighed after 17 days of treatment. The number of mice in each group was 5. One of 3 experiments that gave similar results is shown. (FIG. 14D) TUNEL staining was performed immunohistochemically on tissue sections of the tumor and heart samples from the treatment study, and quantified for positivity. Statistical analyses were performed with Student's r-test in (FIG. 14B), and ANOVA in (FIG. 14C) and (FIG. 14D); error bars, s.e.m.; n.s., not significant; single asterisk, p<0.05; double asterisk, p<0.01; triple asterisk, p<0.001. […]
Cryo-sections were immunohistochemically stained, scanned with a Scanscope CM-1 scanner, and positively stained areas were quantified with the ImageScope software (Aperio Technologies, Vista, Calif.; Sugahara et al., 2009). […]

Compound	enhancement of extravasation of albumin and nanoparticles within the tumor [1]	homing to normal tissue [2]	cardiomyocyte apoptosis (TUNEL), combo group [3]
VEGF	up to 4 fold	–	–
N=C(N)NCCC[C@@H]1NC(=O)[C@@H](N)CSSC[C@@H](C(=O)O)NC(=O)[C@H](CC(=O)O)NC(=O)[C@@H]2CCCN2C(=O)CNC(=O)[C@H](CCCCN)NC(=O)[C@H](CC(=O)O)NC(=O)CNC1=O [iRGD]	–	does not detectably home to any normal tissue	minimally present
